Series [1] concerns isolated rat heart.
Description: Applying this approach, a perfused isolated heart may be inserted into an 11.5 tesla NMR magnet for spectroscopic analysis of high-energy phosphagens (ATP, phosphocreatine, and inorganic phosphate) in combination with collection of heart effluent and tissue, and functional assessment of contractility can be determined as measured by dP/dtmax and dP/dtmin, left ventricular developed pressure, heart rate, etc.
(§1) A heart, in this case isolated from rat and perfused using the Langendorff method, is image guided by 1 H magnetic resonance imaging and magnetic resonance spectroscopy is performed for ^31P found in the high energy phosphogens ATP, phosphocreatine (PCr), and inorganic phosphate (Pi) in an upright 11.7 Tesla NMR at 161.99 MHz (FIGS. 1 and 2).
(§2) The energetic spectra from the whole heart was averaged every 4 minutes before and after drug exposure. PCr, ATP alpha, beta, and gamma, and Pi peak height and area, and pH calculated from the resonance shift in Pi (pHi=pK+log [(go−gB)/gA−go)] […] Heart contractility (left ventricular pressure) and heart rate is simultaneously acquired on an Emka IOX data acquisition system.
^31P spectra is acquired for 20 minutes prior to drug application. The drug of interest is then applied for 1 hour followed by a 20 minute stress test using 0.1 um isoproteranol (a beta agonist) in the presence of the drug which causes increased contractility, relaxation, heart rate, and increased conduction velocity. This step is done to test the energy reserve of the heart after drug application. […] As a positive control, we use FCCP, a mitochondrial uncoupler that inhibits mitochondrial oxidative phosphorylation by disrupting the mitochondrial protein gradient.
The test system of series [2] is isolated rat heart. This is another data set of the same source.
Protocol: In combination with the functional assessment, whole heart energetics can be determined, measured as the changes in peak levels of ATP, phosphocreatine, and inorganic phosphate using NMR spectroscopy.
as §1, §2
^31P spectra is acquired for 20 minutes prior to drug application. The drug of interest is then applied for 1 hour followed by a 20 minute stress test using 0.1 um isoproteranol (a beta agonist) in the presence of the drug which causes increased contractility, relaxation, heart rate, and increased conduction velocity. This step is done to test the energy reserve of the heart after drug application.
[3] abbreviates: drug applied for 1 hour, before stress test.
The mark [4] stands for this setting: during 20 minute stress test, 0.1 um isoproteranol in the presence of the drug.

“Also recorded” adds a separate entry of the source. Like-named read-outs stand apart in the source and are kept apart here.

In the case of “carbony cyanide 4-(trifluoromethoxy) phenylhydrazone [FCCP]”, the “contractility (dP/dtmax)” value in the series with isolated rat heart [1] (setting [3]) is given as “declines”. Besides, the contractility result in the series with isolated rat heart [1] (setting [4]) is on record as “increased slightly”. Moreover, in the series with isolated rat heart [2] (setting [3]), the ATPγ peak result was “declines”, the PCr peak entry is given as “declines” and the Pi peak result is recorded as “did not affect”. Further, in the series on isolated rat heart [2] (setting [4]), the ATPγ peak result was “declined further”, the PCr peak entry is “dropped slightly” and the Pi peak entry was “no effect”.
In the case of `COc1cccc2c1C(=O)c1c(O)c3c(c(O)c1C2=O)C[C@@](O)(C(=O)CO)C[C@@H]3O[C@H]1C[C@H](N)[C@H](O)[C@H](C)O1` [doxorubicin], in the series on isolated rat heart [1] (doxorubicin 1 and 10 uM), the contractility entry is “increases; also recorded: increasing”. Moreover, in the series with isolated rat heart [2] (doxorubicin 1 and 10 uM), the ATP result is “decreases”, the PCr result is “decreases” and the “Pi (inorganic phosphate)” value is listed as “decreases”. Moreover, in the series on isolated rat heart [2] (doxorubicin 1 and 10 uM, isoproteranol stress test period), the “effects on contractility and energetic parameters in the stress test period” value is reported as “pronounced”. In addition, the phosphocreatine entry in the series with isolated rat heart [2] (stress test with isoproteranol, versus control hearts) is listed as “pronounced drop”.

The values are drawn from US9393324B2, “Use of 31P NMR spectroscopy of whole heart energetics for detection of drug-induced cardiotoxicity” (Battelle Memorial Institute, priority 2012, dated 2016).
